Laboratory results: PMC4979471 (Cell Death Discovery, 2015)
Like-named read-outs stand apart in the source and are kept apart here.

What was measured:
Test in all cases: Kinase selectivity, P33-radiolabeled assay
Type in all cases: biochemical
Settings in all cases: 10 μM ATP
BRSK1 = target: T1, BRSK1 (Homo sapiens, UniProt Q8TDC3)
T1 construct: purchased Reaction Biology Corp
T1 sequence (Q8TDC3 1-778): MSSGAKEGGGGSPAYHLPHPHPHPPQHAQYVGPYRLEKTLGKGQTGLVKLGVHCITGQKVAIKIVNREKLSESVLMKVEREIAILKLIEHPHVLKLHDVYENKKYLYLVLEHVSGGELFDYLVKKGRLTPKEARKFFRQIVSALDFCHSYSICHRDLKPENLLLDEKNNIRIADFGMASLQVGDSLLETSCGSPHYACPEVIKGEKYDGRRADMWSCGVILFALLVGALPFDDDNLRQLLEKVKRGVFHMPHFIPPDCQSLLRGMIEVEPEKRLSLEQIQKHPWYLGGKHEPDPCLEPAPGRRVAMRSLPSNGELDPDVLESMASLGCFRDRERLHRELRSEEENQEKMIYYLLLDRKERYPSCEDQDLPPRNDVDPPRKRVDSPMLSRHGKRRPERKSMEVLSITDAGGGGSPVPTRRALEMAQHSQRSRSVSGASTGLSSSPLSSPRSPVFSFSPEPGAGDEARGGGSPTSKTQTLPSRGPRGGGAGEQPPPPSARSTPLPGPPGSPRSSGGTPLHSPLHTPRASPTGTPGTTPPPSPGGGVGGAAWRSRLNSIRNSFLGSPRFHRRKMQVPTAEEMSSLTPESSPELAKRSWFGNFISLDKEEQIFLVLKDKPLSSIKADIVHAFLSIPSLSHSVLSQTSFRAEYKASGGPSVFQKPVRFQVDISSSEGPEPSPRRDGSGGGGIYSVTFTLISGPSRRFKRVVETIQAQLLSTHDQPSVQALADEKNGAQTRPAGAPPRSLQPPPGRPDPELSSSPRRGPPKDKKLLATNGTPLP
How it was run: (§1)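 Each enzyme was exposed to 10 μM compound, with duplicate measurements, in reactions containing 10 μM ATP. Numbers are remaining activity as a percent of the vehicle (DMSO) signal.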

FGFR4 = target: T2, FGFR4 (Homo sapiens, UniProt P22455)
T2 construct: purchased Reaction Biology Corp
How it was run: as §1

FLT4/VEGFR3 = target: T3, FLT4/VEGFR3 (Homo sapiens, UniProt P35916)
T3 construct: purchased Reaction Biology Corp
How it was run: as §1

LATS1 = target: T4, LATS1 (Homo sapiens, UniProt O95835)
T4 construct: purchased Reaction Biology Corp
T4 sequence (O95835 1-1130): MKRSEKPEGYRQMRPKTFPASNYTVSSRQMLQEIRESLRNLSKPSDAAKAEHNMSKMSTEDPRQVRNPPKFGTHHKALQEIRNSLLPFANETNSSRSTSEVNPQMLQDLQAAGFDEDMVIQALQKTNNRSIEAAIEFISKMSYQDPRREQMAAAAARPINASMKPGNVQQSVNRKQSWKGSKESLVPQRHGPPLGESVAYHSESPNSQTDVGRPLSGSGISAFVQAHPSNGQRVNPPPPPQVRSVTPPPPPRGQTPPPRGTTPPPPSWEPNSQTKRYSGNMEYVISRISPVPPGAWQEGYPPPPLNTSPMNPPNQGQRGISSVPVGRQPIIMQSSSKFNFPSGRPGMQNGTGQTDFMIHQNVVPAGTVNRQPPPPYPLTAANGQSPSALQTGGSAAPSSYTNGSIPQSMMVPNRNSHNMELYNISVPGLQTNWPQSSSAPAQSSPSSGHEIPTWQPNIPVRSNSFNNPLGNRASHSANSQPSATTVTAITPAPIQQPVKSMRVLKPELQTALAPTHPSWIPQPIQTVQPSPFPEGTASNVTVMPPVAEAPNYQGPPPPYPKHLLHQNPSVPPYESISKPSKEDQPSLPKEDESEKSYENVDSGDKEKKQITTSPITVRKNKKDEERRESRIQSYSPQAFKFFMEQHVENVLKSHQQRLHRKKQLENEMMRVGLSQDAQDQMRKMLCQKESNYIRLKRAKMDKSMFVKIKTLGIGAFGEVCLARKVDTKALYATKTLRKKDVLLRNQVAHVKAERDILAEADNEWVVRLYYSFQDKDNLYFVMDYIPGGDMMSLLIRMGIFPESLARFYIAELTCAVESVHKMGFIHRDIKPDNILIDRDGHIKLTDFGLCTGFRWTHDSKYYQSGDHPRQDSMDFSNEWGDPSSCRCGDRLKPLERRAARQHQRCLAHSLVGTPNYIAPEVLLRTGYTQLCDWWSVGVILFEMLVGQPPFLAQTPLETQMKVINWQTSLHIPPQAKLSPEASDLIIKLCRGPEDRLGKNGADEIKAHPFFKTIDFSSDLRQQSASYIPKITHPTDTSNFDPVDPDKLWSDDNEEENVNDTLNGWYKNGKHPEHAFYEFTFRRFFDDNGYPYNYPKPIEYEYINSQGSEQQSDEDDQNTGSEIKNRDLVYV
How it was run: as §1

MELK = target: T5, MELK (Homo sapiens, UniProt Q14680)
T5 construct: purchased Reaction Biology Corp
How it was run: as §1

MLCK2/MYLK2 = target: T6, MLCK2/MYLK2 (Homo sapiens, UniProt Q9H1R3)
T6 construct: purchased Reaction Biology Corp
How it was run: as §1

MLK2/MAP3K10 = target: T7, MLK2/MAP3K10 (Homo sapiens, UniProt Q02779)
T7 construct: purchased Reaction Biology Corp
How it was run: as §1

PKN3/PRK3 = target: T8, PKN3/PRK3 (Homo sapiens, UniProt Q6P5Z2)
T8 construct: purchased Reaction Biology Corp
How it was run: as §1

STK16 = target: T9, STK16 (Homo sapiens, UniProt O75716)
T9 construct: purchased Reaction Biology Corp
How it was run: as §1

WNK3 = target: T10, WNK3 (Homo sapiens, UniProt Q9BYP7)
T10 construct: purchased Reaction Biology Corp
How it was run: as §1

c-MET = target: T11, c-MET (Homo sapiens, UniProt P08581)
T11 construct: purchased Reaction Biology Corp
How it was run: as §1

[1] = read-out: % Enzyme Activity (relative to DMSO controls) AVG
[2] = read-out: % Enzyme Activity (relative to DMSO controls) Data 1
[3] = read-out: % Enzyme Activity (relative to DMSO controls) Data 2

T3 sequence (P35916 25-1363): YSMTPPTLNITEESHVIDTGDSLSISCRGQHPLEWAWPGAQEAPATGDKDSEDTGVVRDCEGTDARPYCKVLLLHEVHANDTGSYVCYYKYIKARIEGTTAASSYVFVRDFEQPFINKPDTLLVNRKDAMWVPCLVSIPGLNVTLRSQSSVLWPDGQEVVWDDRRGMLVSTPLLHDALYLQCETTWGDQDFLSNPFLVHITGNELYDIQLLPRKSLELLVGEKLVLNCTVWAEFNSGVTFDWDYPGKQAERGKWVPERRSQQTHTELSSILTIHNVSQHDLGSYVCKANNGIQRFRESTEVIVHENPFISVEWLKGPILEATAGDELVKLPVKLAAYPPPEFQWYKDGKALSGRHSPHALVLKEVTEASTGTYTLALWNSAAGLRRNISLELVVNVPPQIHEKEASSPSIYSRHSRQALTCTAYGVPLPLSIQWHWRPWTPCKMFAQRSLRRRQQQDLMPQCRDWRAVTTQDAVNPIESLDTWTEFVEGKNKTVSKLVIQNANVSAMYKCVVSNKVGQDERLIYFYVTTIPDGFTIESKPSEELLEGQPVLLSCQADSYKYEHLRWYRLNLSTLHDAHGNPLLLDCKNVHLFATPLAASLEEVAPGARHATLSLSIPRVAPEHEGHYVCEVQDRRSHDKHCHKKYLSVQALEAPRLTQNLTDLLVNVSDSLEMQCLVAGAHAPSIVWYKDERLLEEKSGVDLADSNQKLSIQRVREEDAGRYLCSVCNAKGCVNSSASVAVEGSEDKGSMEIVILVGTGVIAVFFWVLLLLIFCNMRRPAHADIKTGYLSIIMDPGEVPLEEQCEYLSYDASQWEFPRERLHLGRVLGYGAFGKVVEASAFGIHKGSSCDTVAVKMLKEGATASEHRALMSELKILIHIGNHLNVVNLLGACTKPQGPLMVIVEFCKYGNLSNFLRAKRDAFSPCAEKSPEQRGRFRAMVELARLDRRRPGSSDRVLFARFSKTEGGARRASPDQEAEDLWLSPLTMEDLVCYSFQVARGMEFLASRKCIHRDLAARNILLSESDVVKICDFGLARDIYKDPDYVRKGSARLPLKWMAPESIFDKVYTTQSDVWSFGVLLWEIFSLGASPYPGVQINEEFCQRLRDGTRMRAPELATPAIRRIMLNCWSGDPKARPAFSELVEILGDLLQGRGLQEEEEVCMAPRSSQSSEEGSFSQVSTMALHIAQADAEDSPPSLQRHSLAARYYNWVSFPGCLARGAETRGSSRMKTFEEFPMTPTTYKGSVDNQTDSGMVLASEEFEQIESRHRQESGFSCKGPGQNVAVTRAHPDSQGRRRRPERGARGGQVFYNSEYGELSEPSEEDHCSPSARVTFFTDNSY
T5 sequence (Q14680 whole entry): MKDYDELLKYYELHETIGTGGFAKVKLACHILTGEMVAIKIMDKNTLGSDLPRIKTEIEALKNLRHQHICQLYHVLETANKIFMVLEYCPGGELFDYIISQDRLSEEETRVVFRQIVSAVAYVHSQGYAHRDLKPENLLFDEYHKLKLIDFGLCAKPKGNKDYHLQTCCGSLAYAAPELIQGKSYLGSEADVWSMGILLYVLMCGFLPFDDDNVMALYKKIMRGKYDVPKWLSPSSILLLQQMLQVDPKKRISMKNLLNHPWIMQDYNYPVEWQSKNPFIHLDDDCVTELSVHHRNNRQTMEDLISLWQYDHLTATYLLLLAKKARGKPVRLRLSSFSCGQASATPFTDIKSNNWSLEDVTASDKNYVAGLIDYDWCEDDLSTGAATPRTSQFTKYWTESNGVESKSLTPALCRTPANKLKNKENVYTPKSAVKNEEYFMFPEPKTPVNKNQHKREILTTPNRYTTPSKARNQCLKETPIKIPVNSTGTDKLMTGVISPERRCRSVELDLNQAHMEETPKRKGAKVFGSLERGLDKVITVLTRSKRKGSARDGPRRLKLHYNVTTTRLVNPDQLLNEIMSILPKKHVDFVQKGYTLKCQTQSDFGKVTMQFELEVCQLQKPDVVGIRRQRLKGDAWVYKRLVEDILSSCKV
T7 sequence (Q02779 whole entry): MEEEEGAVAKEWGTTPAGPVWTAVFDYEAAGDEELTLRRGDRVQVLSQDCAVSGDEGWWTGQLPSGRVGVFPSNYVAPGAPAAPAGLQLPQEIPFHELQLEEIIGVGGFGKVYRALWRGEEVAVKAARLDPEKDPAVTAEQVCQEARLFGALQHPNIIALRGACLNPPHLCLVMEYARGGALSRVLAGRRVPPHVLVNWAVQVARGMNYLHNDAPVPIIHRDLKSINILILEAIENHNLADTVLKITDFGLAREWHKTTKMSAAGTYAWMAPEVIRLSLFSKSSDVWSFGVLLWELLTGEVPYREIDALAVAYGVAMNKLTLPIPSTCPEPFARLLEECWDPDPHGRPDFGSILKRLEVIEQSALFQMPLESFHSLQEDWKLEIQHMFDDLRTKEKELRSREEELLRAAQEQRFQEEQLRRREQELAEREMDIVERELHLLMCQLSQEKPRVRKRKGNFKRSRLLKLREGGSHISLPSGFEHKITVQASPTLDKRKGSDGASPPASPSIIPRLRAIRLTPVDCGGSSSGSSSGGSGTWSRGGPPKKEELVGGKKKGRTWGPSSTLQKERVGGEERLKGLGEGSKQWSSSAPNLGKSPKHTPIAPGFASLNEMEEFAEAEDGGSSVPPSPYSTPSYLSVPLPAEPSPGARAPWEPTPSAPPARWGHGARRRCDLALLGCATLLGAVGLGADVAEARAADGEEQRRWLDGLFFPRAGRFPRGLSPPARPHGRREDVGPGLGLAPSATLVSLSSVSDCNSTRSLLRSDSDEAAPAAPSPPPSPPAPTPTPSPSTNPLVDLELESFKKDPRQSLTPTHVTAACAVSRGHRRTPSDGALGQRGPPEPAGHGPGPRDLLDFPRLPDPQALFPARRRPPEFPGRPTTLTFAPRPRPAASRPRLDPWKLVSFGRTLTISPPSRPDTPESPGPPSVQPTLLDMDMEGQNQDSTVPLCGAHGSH
T11 sequence (P08581 25-1390): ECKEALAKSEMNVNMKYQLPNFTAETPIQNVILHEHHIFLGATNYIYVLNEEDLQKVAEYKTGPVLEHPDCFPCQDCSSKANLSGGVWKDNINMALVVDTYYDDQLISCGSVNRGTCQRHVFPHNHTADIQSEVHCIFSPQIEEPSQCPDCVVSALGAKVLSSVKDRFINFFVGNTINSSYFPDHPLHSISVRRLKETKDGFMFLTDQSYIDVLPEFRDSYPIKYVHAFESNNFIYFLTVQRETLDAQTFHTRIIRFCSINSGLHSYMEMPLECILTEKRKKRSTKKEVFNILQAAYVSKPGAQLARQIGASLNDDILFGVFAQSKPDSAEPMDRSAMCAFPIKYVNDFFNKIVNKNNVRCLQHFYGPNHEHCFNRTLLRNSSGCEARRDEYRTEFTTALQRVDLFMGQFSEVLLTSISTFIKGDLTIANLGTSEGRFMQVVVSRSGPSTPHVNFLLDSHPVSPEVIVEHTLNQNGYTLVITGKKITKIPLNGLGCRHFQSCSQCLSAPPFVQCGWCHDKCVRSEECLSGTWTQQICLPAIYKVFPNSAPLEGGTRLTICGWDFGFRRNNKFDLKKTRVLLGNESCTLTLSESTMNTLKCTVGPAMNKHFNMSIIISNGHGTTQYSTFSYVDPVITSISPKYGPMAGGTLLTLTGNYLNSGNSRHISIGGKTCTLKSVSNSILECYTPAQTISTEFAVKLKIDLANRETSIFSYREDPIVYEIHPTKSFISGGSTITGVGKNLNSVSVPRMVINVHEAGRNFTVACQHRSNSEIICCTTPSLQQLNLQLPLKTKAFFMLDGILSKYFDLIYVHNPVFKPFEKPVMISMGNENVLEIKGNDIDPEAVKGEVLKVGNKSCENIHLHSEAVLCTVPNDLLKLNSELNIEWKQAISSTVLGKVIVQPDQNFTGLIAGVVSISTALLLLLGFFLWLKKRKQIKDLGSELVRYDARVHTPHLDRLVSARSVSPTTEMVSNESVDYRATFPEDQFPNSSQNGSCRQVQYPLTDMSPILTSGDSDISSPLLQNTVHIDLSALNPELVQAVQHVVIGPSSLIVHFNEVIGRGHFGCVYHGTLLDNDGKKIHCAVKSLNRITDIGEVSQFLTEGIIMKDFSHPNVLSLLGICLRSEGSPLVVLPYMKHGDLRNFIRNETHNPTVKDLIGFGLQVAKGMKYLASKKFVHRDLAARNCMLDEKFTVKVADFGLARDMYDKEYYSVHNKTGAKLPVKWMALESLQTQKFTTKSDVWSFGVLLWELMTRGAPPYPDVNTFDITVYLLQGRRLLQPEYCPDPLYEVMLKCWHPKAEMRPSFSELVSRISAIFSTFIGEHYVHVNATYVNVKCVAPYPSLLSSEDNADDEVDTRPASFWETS
T9 sequence (O75716 whole entry): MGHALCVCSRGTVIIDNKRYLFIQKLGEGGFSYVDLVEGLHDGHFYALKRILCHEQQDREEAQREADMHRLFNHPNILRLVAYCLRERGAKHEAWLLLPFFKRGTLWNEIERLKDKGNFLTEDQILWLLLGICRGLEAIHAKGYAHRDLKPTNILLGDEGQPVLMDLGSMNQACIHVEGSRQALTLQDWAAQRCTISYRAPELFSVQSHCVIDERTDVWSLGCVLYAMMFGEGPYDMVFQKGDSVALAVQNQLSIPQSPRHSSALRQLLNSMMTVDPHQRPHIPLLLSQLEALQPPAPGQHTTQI

`CC(C)(C)C(=O)N1N=CC[C@H]1c1ccccc1` [GSK′963] showed a remaining activity at 10 µM (BRSK1; [1]) of 95.2%, a remaining activity at 10 µM (BRSK1; [2]) of 96.9% and a remaining activity at 10 µM (BRSK1; [3]) of 93.5%. The remaining activity at 10 µM (FGFR4; [1]) was 93.5%, the remaining activity at 10 µM (FGFR4; [2]) was 91.5% and the remaining activity at 10 µM (FGFR4; [3]) was 95.6%. It also gave a remaining activity at 10 µM (FLT4/VEGFR3; [1]) of 103%, a remaining activity at 10 µM (FLT4/VEGFR3; [2]) of 105% and a remaining activity at 10 µM (FLT4/VEGFR3; [3]) of 102%. It also gave a remaining activity at 10 µM (LATS1; [1]) of 103%, a remaining activity at 10 µM (LATS1; [2]) of 103% and a remaining activity at 10 µM (LATS1; [3]) of 102%. For the same compound, the remaining activity at 10 µM (MELK; [1]) was 104%, the remaining activity at 10 µM (MELK; [2]) was 105% and the remaining activity at 10 µM (MELK; [3]) was 103%. The remaining activity at 10 µM (MLCK2/MYLK2; [1]) was 104%, the remaining activity at 10 µM (MLCK2/MYLK2; [2]) was 106% and the remaining activity at 10 µM (MLCK2/MYLK2; [3]) was 102%. For the same compound, the remaining activity at 10 µM (MLK2/MAP3K10; [1]) was 99.4%, the remaining activity at 10 µM (MLK2/MAP3K10; [2]) was 98.6% and the remaining activity at 10 µM (MLK2/MAP3K10; [3]) was 100%. The remaining activity at 10 µM (PKN3/PRK3; [1]) was 94%, the remaining activity at 10 µM (PKN3/PRK3; [2]) was 92.9% and the remaining activity at 10 µM (PKN3/PRK3; [3]) was 95.1%. The remaining activity at 10 µM (STK16; [1]) was 101%, the remaining activity at 10 µM (STK16; [2]) was 101% and the remaining activity at 10 µM (STK16; [3]) was 101%. The remaining activity at 10 µM (WNK3; [1]) was 100%, the remaining activity at 10 µM (WNK3; [2]) was 97.5% and the remaining activity at 10 µM (WNK3; [3]) was 103%. It also gave a remaining activity at 10 µM (c-MET; [1]) of 94.5%, a remaining activity at 10 µM (c-MET; [2]) of 90.7% and a remaining activity at 10 µM (c-MET; [3]) of 98.3%.
